# Results as given in US11306084B2, “Integrin antagonists” (Saint Louis University, priority 2016, dated 2022).
# Structures can show the parent of a compound that is named as a salt.
# Experiments:
# [1] = molecular target: T1, Recombinant human integrin α5β1 (Homo sapiens, UniProt P05556+P08648); assay: Solid Phase Receptor Assay (SPRA) for α5β1 function; assay type: binding; conditions: plate-bound human fibronectin
# T1 construct: purchased R&D Systems 3230-A5
# [2] = molecular target: T2, Recombinant human integrin ανβ3 (Homo sapiens, UniProt P05106+P06756); assay: Solid Phase Receptor Assay (SPRA) for ανβ3 function; assay type: binding; conditions: plate-bound human vitronectin; read-out: αvβ3 SPRA IC50
# T2 construct: purchased R&D Systems 3050-AV
# T2 sequence (P06756 31-992 limits assumed): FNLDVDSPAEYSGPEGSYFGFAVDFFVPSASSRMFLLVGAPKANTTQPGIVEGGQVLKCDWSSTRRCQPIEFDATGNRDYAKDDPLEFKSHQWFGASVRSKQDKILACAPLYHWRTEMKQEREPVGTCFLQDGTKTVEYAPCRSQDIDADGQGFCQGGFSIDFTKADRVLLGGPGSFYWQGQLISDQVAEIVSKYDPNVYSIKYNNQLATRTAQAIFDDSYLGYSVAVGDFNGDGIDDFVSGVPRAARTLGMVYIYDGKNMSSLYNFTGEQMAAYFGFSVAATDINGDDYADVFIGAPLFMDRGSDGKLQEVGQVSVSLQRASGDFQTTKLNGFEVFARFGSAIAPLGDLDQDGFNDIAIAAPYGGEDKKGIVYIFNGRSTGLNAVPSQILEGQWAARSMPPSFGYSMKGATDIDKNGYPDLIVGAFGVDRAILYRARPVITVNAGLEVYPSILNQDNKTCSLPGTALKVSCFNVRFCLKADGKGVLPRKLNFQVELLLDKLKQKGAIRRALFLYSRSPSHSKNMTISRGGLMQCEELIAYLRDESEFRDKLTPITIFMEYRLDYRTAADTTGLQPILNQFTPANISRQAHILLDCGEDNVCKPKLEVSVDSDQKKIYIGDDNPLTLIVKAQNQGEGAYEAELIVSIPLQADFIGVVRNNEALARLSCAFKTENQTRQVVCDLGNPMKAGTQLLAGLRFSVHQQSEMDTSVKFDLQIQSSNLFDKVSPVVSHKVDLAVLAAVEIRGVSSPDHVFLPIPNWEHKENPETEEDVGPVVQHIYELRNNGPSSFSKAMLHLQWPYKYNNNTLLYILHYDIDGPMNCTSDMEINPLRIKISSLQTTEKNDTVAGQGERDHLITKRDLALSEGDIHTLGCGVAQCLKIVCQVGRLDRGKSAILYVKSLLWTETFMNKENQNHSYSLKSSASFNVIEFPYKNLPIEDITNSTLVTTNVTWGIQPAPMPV
# T2 sequence (P05106 27-718 limits assumed): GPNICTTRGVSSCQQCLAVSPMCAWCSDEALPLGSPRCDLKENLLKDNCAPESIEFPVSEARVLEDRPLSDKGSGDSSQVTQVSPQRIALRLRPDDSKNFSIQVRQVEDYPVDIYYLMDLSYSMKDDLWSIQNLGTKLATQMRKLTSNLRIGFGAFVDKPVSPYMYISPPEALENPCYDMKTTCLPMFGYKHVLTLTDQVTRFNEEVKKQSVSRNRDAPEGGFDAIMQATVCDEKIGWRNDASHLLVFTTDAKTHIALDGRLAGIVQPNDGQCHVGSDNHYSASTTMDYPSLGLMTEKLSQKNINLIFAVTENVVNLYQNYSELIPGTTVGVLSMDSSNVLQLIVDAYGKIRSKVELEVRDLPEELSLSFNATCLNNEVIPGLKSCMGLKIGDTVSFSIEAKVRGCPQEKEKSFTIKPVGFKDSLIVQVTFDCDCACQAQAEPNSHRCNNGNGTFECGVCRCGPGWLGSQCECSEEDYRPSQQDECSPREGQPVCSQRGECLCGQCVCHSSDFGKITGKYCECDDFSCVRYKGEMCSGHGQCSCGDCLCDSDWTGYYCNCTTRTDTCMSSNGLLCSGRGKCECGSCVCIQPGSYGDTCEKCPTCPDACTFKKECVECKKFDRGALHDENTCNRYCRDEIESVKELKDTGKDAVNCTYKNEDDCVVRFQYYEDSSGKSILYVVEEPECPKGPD
# T1 sequence (P08648 42-995 limits assumed): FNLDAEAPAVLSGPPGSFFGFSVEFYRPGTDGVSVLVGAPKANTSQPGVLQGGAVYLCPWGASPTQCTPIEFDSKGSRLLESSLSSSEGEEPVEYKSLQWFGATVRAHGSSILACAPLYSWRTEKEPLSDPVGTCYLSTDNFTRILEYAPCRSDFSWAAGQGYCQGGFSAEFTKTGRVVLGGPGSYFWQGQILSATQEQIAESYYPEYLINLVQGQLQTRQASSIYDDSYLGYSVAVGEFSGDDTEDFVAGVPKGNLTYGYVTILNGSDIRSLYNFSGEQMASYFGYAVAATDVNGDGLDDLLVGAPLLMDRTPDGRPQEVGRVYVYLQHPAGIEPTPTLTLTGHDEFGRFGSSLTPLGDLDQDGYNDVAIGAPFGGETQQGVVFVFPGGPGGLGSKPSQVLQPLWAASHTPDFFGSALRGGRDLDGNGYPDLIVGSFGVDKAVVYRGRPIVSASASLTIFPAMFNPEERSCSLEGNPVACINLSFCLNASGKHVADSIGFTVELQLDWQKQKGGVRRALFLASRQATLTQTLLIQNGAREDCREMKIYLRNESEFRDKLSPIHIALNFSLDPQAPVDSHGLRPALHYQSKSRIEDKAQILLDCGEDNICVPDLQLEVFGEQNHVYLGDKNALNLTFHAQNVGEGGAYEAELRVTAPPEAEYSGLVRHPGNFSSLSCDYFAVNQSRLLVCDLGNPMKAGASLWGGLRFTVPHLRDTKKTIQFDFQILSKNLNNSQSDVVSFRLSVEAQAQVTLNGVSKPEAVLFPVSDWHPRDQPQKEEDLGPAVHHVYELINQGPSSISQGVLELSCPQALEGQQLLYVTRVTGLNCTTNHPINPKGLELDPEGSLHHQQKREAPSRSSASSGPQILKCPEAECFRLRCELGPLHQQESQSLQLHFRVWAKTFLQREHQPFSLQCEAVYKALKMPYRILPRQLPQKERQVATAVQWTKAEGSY
# T1 sequence (P05556 21-728 limits assumed): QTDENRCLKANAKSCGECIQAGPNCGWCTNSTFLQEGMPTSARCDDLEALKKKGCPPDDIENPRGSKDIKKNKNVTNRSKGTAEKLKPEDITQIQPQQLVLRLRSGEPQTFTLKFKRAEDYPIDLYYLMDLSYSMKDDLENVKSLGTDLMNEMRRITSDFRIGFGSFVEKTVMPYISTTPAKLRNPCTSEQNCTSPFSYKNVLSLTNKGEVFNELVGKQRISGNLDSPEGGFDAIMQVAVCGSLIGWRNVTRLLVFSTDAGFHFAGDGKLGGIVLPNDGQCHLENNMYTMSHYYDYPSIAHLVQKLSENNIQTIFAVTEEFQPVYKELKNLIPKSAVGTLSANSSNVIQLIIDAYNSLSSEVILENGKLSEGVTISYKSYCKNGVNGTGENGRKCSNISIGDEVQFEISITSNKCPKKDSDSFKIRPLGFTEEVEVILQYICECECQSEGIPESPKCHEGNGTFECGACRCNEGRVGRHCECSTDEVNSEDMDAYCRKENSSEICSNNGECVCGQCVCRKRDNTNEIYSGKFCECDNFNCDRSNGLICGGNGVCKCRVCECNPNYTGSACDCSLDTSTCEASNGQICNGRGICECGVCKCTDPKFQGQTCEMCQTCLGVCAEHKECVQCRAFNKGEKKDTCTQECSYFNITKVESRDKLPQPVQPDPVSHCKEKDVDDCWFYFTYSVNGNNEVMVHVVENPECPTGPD
compound,measurement,setting,value
"COc1ccc(C(=O)O)cc1C(CC(=O)O)Cc1cc(OCCc2ccc3c(n2)NCCC3)n(C)n1 (stereo not shown) [Example 48, 3-(1-carboxy-3-(1-methyl-5-(2-(5,6,7,8-tetrahydro-1,8-naphthyridin-2-yl)ethoxy)-1H-pyrazol-3-yl)propan-2-yl)-4-methoxybenzoic Acid Trifluoroacetate]",IC50,[1],230 nM
same,IC50,[2],5 nM
"Cn1nc(CC(CC(=O)O)c2cccc(C(C)(C)C)c2)cc1OCCc1ccc2c(n1)NCCC2 (stereo not shown) [Example 49, 3-(3-tert-butylphenyl)-4-[1-methyl-5-[2-(5,6,7,8-tetrahydro-1,8-naphthyridin-2-yl)ethoxy]pyrazol-3-yl]butanoic Acid Trifluoroacetate]",IC50,[1],12 nM
same,IC50,[2],7 nM
